Source: US20130023574A1, “METHOD FOR GENERATING DATA SET FOR INTEGRATED PROTEOMICS, INTEGRATED PROTEOMICS METHOD USING DATA SET FOR INTEGRATED PROTEOMICS THAT IS GENERATED BY THE GENERATION METHOD, AND METHOD FOR IDENTIFYING CAUSATIVE SUBSTANCE USING SAME” (National University Corporation Kumamoto University, priority 2010, published 2013)

Columns and labels:
U373 cells = assay: Chemoresistance to TMZ (rate of living cells, absorbance) in glioma cell line U373; assay type: cell-based, human
Protocol: The experiment was carried out by inoculating the glioma cell line on a 96-well plate at the rate of 100 cells per well and adding TMZ at varying concentration ranging from 0 to 20 μM to each well after 5 hours of inoculation. After the plate was incubated for 6 days, absorbance at 450 nm was measured […]. The rate of living cells was expressed by percentage (%) at the defined concentrations of TMZ by setting the concentration rate of 0 μM as a control and as a standard rate of the living cells at the respective TMZ concentrations. […] In other words, it was found in the glioma cell line that the chemoresistance was increased to a higher extent as the variation expression amounts of vimentin were higher.
This experiment was implemented by inoculating a 6-well plate with glioma cells at the rate of 10^6 cells per well, followed by introduction of a vimentin siRNA or a control siRNA into the cells using lipofectamin 2000 after 24 hours of inoculation. […] After the plate was incubated for 6 days, absorbance at 450 nm was measured […]. […]
This experiment was implemented to investigate an influence of the PAK1-induced vimentin phosphorylation on the sensitivity to anticancer agents in the glioma cell line. […] After incubation for 6 days, the portion having absorbance at 420 nm was measured […]. The rate of living cells was expressed by percentage (%) at every set TMZ concentration by setting the TMZ concentration of 0 μM and absorbance for the stimulation with the PAK inhibitor as a standard living cell rate for the respective TMZ concentrations. […]
This experiment was carried out by inoculating a 96-well plate with the glioma cell line at the rate of 100 cells per well, followed by stimulation with 1 μM of Calpi or 1 μM of A23187 after 5 hours of inoculation and addition of TMZ at concentrations varying from 0 μM to 40 μM. After the glioma cell line was incubated for 6 days, the portion having absorbance at 420 nm was measured. […]

calpain = assay: Fragmentation of vimentin in glioma cell line U373 by Western blotting; assay type: cell-based, human
Source text: In this experiment, calpain was activated A23187 (a calcium ionophor). After the glioma cell line U373 was stimulated with the calpain inhibitor and then confirmed by Western blotting. […] Therefore, it was confirmed that vimentin is cleaved with calpain.
It is known that, although the N-terminal serine residue of group A can be acetylated, the N-terminal amino acid sequence of the vimentin fragments of groups B, C and D, respectively, can be cleaved by calpain (FIGS. 41d, 45). Therefore, in order to confirm the phosphorylation of vimentin and the cleavage of the N-terminal vimentin with PAK1 and calpain, respectively, a pattern of the vimentin spots with GFP-vimentin (1-464.aa full length) overexpressed in the U373 glioma cell line was analyzed by 2D Western blotting using an anti-C-terminal vimentin antibody. […] Further, the particular fragmentation of vimentin was suppressed with the calpain inhibitor (FIG. 27).

**Q.** With CNc1ccc2oc(C[C@H]3O[C@@]4(CC[C@H]3C)O[C@H]([C@H](C)C(=O)c3ccc[nH]3)[C@H](C)C[C@H]4C)nc2c1C(=O)O [A23187] as the compound, how does the “resistance to anticancer agents (rate of living cells)” value (U373 cells; U373 cells, 1 μM A23187, TMZ 20 and 40 μM, 6 days, vs control) read?
**A.** upregulated the resistance to anticancer agents significantly

**Q.** What about the fragmentation of vimentin (calpain) of the same compound?
**A.** enhanced the fragmentation

**Q.** For NCCc1c[nH]c2ccc(O)cc12 [serotonin], which “medicine resistance of the U373 glioma cells” value (U373 cells; FIG. 33, stimulation plus TMZ) is on record?
**A.** upregulated the medicine resistance

**Q.** What about the “sensitivity to anticancer agents (rate of living cells)” value (U373 cells; glioma cell line, 3 μg/ml ephrin A1 or 30 μM serotonin, TMZ 5, 10, 20 and 40 μM, 6 days, vs control) of the same compound?
**A.** upregulated
